Test results taken from patent publication US7354711B2, “Methods for inhibiting immunostimulatory DNA associated responses” (University of Iowa Research Foundation, priority 1997, dated 2008).

Tested on: WEHI 231 cells
Experiment: Inhibition of CpG-ODN 1760 protection against α-sIgM-induced inhibition of [3H] thymidine uptake
Assay type: cell-based, mouse
Details: for Fold: activity expressed as a fraction of activity of chloroquine / Activity: -log10 of the concentration (M) required for half maximal inhibition of CpG-ODN effect on [3H] thymidine uptake in the presence of α-sIgM: Table 2, 4-aminoquinolines; for Activity: -log10 of the concentration (M) required for half maximal inhibition of CpG-ODN effect on [3H] thymidine uptake in the presence of α-sIgM / Activity,-log10 (concentration (M) for half maximal inhibition of CpG-ODN effect on [3H] thymidine uptake in the presence of α-sIgM): WEHI 231 cells; for vs. Chloroquine, fold / Activity,-log10 (concentration (M) for half maximal inhibition of CpG-ODN effect on [3H] thymidine uptake in the presence of α-sIgM): Table 3, 9-aminoacridines
Description: The assay of [^3H] Thymidine incorporation was carried out as follows. WEHI 231 cells (200 μL at 2×10^5/milliliter, in duplicate or triplicate) were incubated in a 96-well plate (Costar, Cambridge Mass.). Additions were made as indicated. After incubating for 16 hours, 0.5 μCi [methyl-^3H] thymidine (2 Ci/millimole, DuPont NEN, Boston Mass.) was added to each well, and the cells were incubated for another 4 hours. Cellular DNA was then captured onto glass fiber filters (Whatman 934AH) using a cell harvester (Brandel, Gaithersberg Md.). The filters were dried, placed into plastic scintillation vials with 10 milliliters of scintillation cocktail (EconoSafe, Research Products International, Mount Prospect Ill.), and counted in a liquid scintillation counter (Beckman LS-3133 T). The ^3H recovered on the filter was expressed as a fraction of the ^3H added.
Referring to experiments summarized in FIG. 1, WEHI 231 cells (ca. 2×10^5 per milliliter) were incubated for 16 hours at 37° C. with 10 μgrams/milliliter α-sIgM, 6 μgrams/milliliter ODN 1760, and the indicated concentration of the compound. After 16 hours, 0.5 μCi [^3H] thymidine was added. After 4 more hours incubation, the cellular DNA was harvested onto glass fiber filters. The dry filters were counted in a liquid scintillation counter.
Each experimental point was the mean of at least duplicate measurements.
Referring to the experiments summarized in FIG. 3, 10 μgrams/milliliter α-sIgM and the indicated concentrations of ODN 1760 and quinacrine were added simultaneously to WEHI 231 cells. Thymidine incorporation was estimated at 16 hours as described for Example 1.
Referring to the experiments summarized in FIG. 4, WEHI 231 cells were incubated with α-sIgM and ODN 1760. At times thereafter 0.1 μM quinacrine was added (data shown in the left three bars). Cells were incubated with 10 μgrams/milliliter (α-sIgM and ODN 1760 (6 μgrams/milliliter, phosphorothioate or a phosphodiester ODN with the same sequence as 1760 (PD ODN) (30 μM at time 0 hours and 8 hours; data represented in right six bars in FIG. 4). [^3H] thymidine incorporation was estimated at 16 hours.
The symbol — indicates no change. Me and Et indicate —CH3 and —CH2CH3 respectively. Aromatic substituents are in the para position except as indicated. The activity is —log10 of the concentration (M) required for half maximal inhibition of CpG-ODN effect on [^3H] thymidine uptake in the presence of α-sIgM.

C=C[C@H]1C[N@@]2CC[C@H]1C[C@@H]2[C@@H](O)c1ccnc2ccc(OC)cc12 [Quinidine, quinidine, reference compound]
Effect on CpG-ODN action (FIG. 1) (at concentrations less than 10 μM): little effect

CCN(CC)Cc1cc(Nc2ccnc3cc(Cl)ccc23)ccc1O [amodiaquine, reference compound]
Inhibition of the CpG-ODN effect (FIG. 1) (at nanomolar concentrations, 10 μg/mL α-sIgM, 6 μg/mL ODN 1760): completely inhibited

CCN(CC)CCCC(C)Nc1c(C)cnc2cc(Cl)ccc12 (stereo not shown) [compound 1]
Fold: activity expressed as a fraction of activity of chloroquine: 0.55 fold
Activity: -log10 of the concentration (M) required for half maximal inhibition of CpG-ODN effect on [3H] thymidine uptake in the presence of α-sIgM: 6.70

CCN(CC)CCCC(C)Nc1ccnc2cc(C)ccc12 (stereo not shown) [compound 3]
Fold: activity expressed as a fraction of activity of chloroquine: 0.16 fold
Activity: -log10 of the concentration (M) required for half maximal inhibition of CpG-ODN effect on [3H] thymidine uptake in the presence of α-sIgM: 6.16

CCN(CC)CCCC(C)Nc1ccnc2cc(Br)ccc12 (stereo not shown) [compound 4]
Fold: activity expressed as a fraction of activity of chloroquine: 0.72 fold
Activity: -log10 of the concentration (M) required for half maximal inhibition of CpG-ODN effect on [3H] thymidine uptake in the presence of α-sIgM: 6.82

CCN(CC)CCC(CNc1ccnc2cc(Cl)ccc12)c1ccccc1 (stereo not shown) [compound 7]
Fold: activity expressed as a fraction of activity of chloroquine: 1.38 fold
Activity: -log10 of the concentration (M) required for half maximal inhibition of CpG-ODN effect on [3H] thymidine uptake in the presence of α-sIgM: 7.10

CC[N+](C)(CC)CCCC(C)Nc1ccnc2cc(Cl)ccc12 (stereo not shown) [compound 8]
Fold: activity expressed as a fraction of activity of chloroquine: 0.02 fold
Activity: -log10 of the concentration (M) required for half maximal inhibition of CpG-ODN effect on [3H] thymidine uptake in the presence of α-sIgM: 5.18

CCN(CC)CCCC(C)Nc1ccnc2cccc(Cl)c12 (stereo not shown) [compound 9]
Fold: activity expressed as a fraction of activity of chloroquine: 0.76 fold
Activity: -log10 of the concentration (M) required for half maximal inhibition of CpG-ODN effect on [3H] thymidine uptake in the presence of α-sIgM: 6.84

CN(C)CCCCNc1ccnc2cc(Cl)ccc12 [compound 10]
Fold: activity expressed as a fraction of activity of chloroquine: 0.72 fold
Activity: -log10 of the concentration (M) required for half maximal inhibition of CpG-ODN effect on [3H] thymidine uptake in the presence of α-sIgM: 6.82

CCN(CC)CCCC(C)Nc1ccnc2cc(Cl)ccc12 (stereo not shown) [compound 11]
Activity: -log10 of the concentration (M) required for half maximal inhibition of CpG-ODN effect on [3H] thymidine uptake in the presence of α-sIgM: 6.56

CCN(CC)CCCC(C)Nc1c(-c2ccccc2)cnc2cc(Cl)ccc12 (stereo not shown) [compound 12]
Fold: activity expressed as a fraction of activity of chloroquine: 0.69 fold
Activity: -log10 of the concentration (M) required for half maximal inhibition of CpG-ODN effect on [3H] thymidine uptake in the presence of α-sIgM: 6.80

CCN(CC)CCCC(C)Nc1ccnc2cc(F)ccc12 (stereo not shown) [compound 13]
Fold: activity expressed as a fraction of activity of chloroquine: 0.26 fold
Activity: -log10 of the concentration (M) required for half maximal inhibition of CpG-ODN effect on [3H] thymidine uptake in the presence of α-sIgM: 6.38

CCN(CC)CCCC(C)Nc1ccnc2cc(OC)ccc12 (stereo not shown) [compound 14]
Fold: activity expressed as a fraction of activity of chloroquine: 0.17 fold
Activity: -log10 of the concentration (M) required for half maximal inhibition of CpG-ODN effect on [3H] thymidine uptake in the presence of α-sIgM: 6.20

CCN(CC)CCCC(C)Nc1ccnc2cc(Cl)ccc12 (stereo not shown) [compound 15]
Activity: -log10 of the concentration (M) required for half maximal inhibition of CpG-ODN effect on [3H] thymidine uptake in the presence of α-sIgM: 6.96

CCN(CC)CCCC(Nc1c2ccc(Cl)cc2nc2ccc(OC)cc12)c1ccc(F)cc1 (stereo not shown) [compound 23]
vs. Chloroquine, fold: 2.57 fold
Activity,-log10 (concentration (M) for half maximal inhibition of CpG-ODN effect on [3H] thymidine uptake in the presence of α-sIgM): 7.37

CCN(CC)CCCC(Nc1c2ccc(Cl)cc2nc2ccc(OC)cc12)c1cccnc1 (stereo not shown) [compound 24]
vs. Chloroquine, fold: 3.63 fold
Activity,-log10 (concentration (M) for half maximal inhibition of CpG-ODN effect on [3H] thymidine uptake in the presence of α-sIgM): 7.52

CCN(CC)CCCC(Nc1c2ccc(Cl)cc2nc2ccc(OC)cc12)c1ccccc1 (stereo not shown) [compound 25]
vs. Chloroquine, fold: 5.75 fold
Activity,-log10 (concentration (M) for half maximal inhibition of CpG-ODN effect on [3H] thymidine uptake in the presence of α-sIgM): 7.72

CCN(CC)CCCC(C)Nc1c2ccc(Cl)cc2nc2cc(OC)c(OC)cc12 (stereo not shown) [compound 26]
vs. Chloroquine, fold: 10.72 fold
Activity,-log10 (concentration (M) for half maximal inhibition of CpG-ODN effect on [3H] thymidine uptake in the presence of α-sIgM): 7.99

CCN(CC)CCCC(Nc1c2ccc(Cl)cc2nc2ccc(OC)cc12)c1cccs1 (stereo not shown) [compound 27]
vs. Chloroquine, fold: 1.82 fold
Activity,-log10 (concentration (M) for half maximal inhibition of CpG-ODN effect on [3H] thymidine uptake in the presence of α-sIgM): 7.22
